# Data taken from patent US20140193827A1 (TEVA PHARMACEUTICAL INDUSTRIES, LTD., priority 2013, published 2014).
# Test system: GA-primed murine splenocytes
# Experiment: Tolerance method for assessing process variability
# Conditions: microarray; splenocytes activated 24 hours
substance,measurement,value
glatiramer acetate [GA],"AVG expression of 1110067B18RIK, probe ILMN_2514723",8.228
same,"AVG expression of 1190002H23RIK, probe ILMN_2593774",7.583
same,"AVG expression of 1700129I04RIK, probe ILMN_1224390",6.752
same,"AVG expression of 2810485I05RIK, probe ILMN_2695217",10.37
same,"AVG expression of A130087I02RIK, probe ILMN_1232144",6.482
same,"AVG expression of A630077B13RIK, probe ILMN_1249864",9.099
same,"AVG expression of A930005H10RIK, probe ILMN_1250135",10.04
same,"AVG expression of ADA, probe ILMN_2686132",7.525
same,"AVG expression of AI467606, probe ILMN_1213645",10.38
same,"AVG expression of ANKRD11, probe ILMN_2727235",9.978
same,"AVG expression of APPL2, probe ILMN_1219978",7.742
same,"AVG expression of ARHGAP4, probe ILMN_2677876",11.38
same,"AVG expression of ARRB2, probe ILMN_2700848",9.049
same,"AVG expression of AVIL, probe ILMN_2753149",6.407
same,"AVG expression of B3GNT7, probe ILMN_2655571",6.563
same,"AVG expression of B230345P09RIK, probe ILMN_2469190",8.997
same,"AVG expression of BATF3, probe ILMN_2526739",6.73
same,"AVG expression of BC038822, probe ILMN_2804103",7.38
same,"AVG expression of BC065085, probe ILMN_2974737",7.582
same,"AVG expression of BEX4, probe ILMN_3118584",6.717
same,"AVG expression of BLVRB, probe ILMN_2770917",9.003
same,"AVG expression of C3, probe ILMN_2759484",8.352
same,"AVG expression of C130078N17RIK, probe ILMN_2522495",10.34
same,"AVG expression of C230082I21RIK, probe ILMN_1248824",8.744
same,"AVG expression of C430002D13RIK, probe ILMN_2571616",7.951
same,"AVG expression of CCND2, probe ILMN_1225932",8.425
same,"AVG expression of CCNG1, probe ILMN_2710229",8.72
same,"AVG expression of CCR6, probe ILMN_2888448",11.42
same,"AVG expression of CD44, probe ILMN_1223697",10.12
same,"AVG expression of CHD3, probe ILMN_2524861",7.978
same,"AVG expression of CHKA, probe ILMN_3026397",12.08
same,"AVG expression of CLASP1, probe ILMN_1225769",7.92
same,"AVG expression of CLIC4, probe ILMN_2599018",7.206
same,"AVG expression of CLSPN, probe ILMN_2858359",8.857
same,"AVG expression of CRTC3, probe ILMN_1248891",8.262
same,"AVG expression of CSNK1G3, probe ILMN_2793946",9.73
same,"AVG expression of CYP51, probe ILMN_2688075",9.707
same,"AVG expression of DEADC1, probe ILMN_2705097",9.246
same,"AVG expression of DGKZ, probe ILMN_1239607",8.46
same,"AVG expression of DLM1-PENDING, probe ILMN_1218547",6.869
same,"AVG expression of DYRK2, probe ILMN_3138439",6.905
same,"AVG expression of E2F3, probe ILMN_2743503",7.726
same,"AVG expression of EG433016, probe ILMN_2995688",8.853
same,"AVG expression of ENTPD5, probe ILMN_3149143",7.434
same,"AVG expression of F2RL1, probe ILMN_2769567",6.312
same,"AVG expression of FBXO4, probe ILMN_2772920",9.934
same,"AVG expression of FOSL2, probe ILMN_1252481",8.057
same,"AVG expression of FOXP3, probe ILMN_2917180",7.709
same,"AVG expression of FSCN1, probe ILMN_2630605",8.879
same,"AVG expression of FXYD5, probe ILMN_1235493",10.05
same,"AVG expression of GAB3, probe ILMN_3133748",7.208
same,"AVG expression of GRN, probe ILMN_2595973",10.66
same,"AVG expression of H3F3B, probe ILMN_1231168",8.812
same,"AVG expression of HAMP, probe ILMN_1236304",6.455
same,"AVG expression of HEG1, probe ILMN_2600022",7.682
same,"AVG expression of HIST2H2AA1, probe ILMN_2751948",7.127
same,"AVG expression of HTT, probe ILMN_2672091",7.448
same,"AVG expression of IFITM1, probe ILMN_2814484",7.066
same,"AVG expression of IFNGR2, probe ILMN_2784272",9.806
same,"AVG expression of IGK-V5, probe ILMN_2631259",11.21
same,"AVG expression of IL1A, probe ILMN_1227018",8.103
same,"AVG expression of IL13, probe ILMN_2927131",6.7
same,"AVG expression of IRF8, probe ILMN_2673369",10.92
same,"AVG expression of KIF1B, probe ILMN_2587761",6.394
same,"AVG expression of LDHA, probe ILMN_1257965",12.99
same,"AVG expression of LOC386005, probe ILMN_2538029",10.77
same,"AVG expression of LOC637711, probe ILMN_1239601",8.053
same,"AVG expression of LOC677643, probe ILMN_1225733",9.931
same,"AVG expression of LOC100043671, probe ILMN_1258600",9.958
same,"AVG expression of LOC100046496, probe ILMN_1229263",10.5
same,"AVG expression of LOC100046793, probe ILMN_2469743",12
same,"AVG expression of LOC100047316, probe ILMN_1215825",8.765
same,"AVG expression of LY78, probe ILMN_2585533",7.951
same,"AVG expression of MSH5, probe ILMN_1241923",6.819
same,"AVG expression of NFAT5, probe ILMN_2612448",9.617
same,"AVG expression of NKG7, probe ILMN_1217855",9.69
same,"AVG expression of PEA15, probe ILMN_2624938",8.032
same,"AVG expression of PEX11C, probe ILMN_2467365",6.162
same,"AVG expression of RABAC1, probe ILMN_1244857",10.79
same,"AVG expression of RDM1, probe ILMN_1218934",9.296
same,"AVG expression of RFC3, probe ILMN_2543834",7.31
same,"AVG expression of RNF167, probe ILMN_2892856",9.181
same,"AVG expression of RUNDC3B, probe ILMN_2660596",7.1822
same,"AVG expression of SCN4A, probe ILMN_2814847",7.299
same,"AVG expression of SDF2L1, probe ILMN_1221943",9.843
same,"AVG expression of SERPINA3H, probe ILMN_2889832",7.95
same,"AVG expression of SGCB, probe ILMN_1255256",7.292
